{"source": "patent US20110301104A1", "about": "“Transition state structure of orotate phosphoribosyl transferases and uses thereof” (priority 2008, published 2011)", "type_in_all_cases": "biochemical", "key": {"PfOPRT [1]": {"molecular_target": "T1, PfOPRT (Plasmodium falciparum, UniProt Q8I3Y0)", "T1 construct": "His6 (thrombin-cleavable) (N, cleaved yes); made in house; host or cells: E. coli BL21-AI", "T1 sequence (Q8I3Y0 1-281)": "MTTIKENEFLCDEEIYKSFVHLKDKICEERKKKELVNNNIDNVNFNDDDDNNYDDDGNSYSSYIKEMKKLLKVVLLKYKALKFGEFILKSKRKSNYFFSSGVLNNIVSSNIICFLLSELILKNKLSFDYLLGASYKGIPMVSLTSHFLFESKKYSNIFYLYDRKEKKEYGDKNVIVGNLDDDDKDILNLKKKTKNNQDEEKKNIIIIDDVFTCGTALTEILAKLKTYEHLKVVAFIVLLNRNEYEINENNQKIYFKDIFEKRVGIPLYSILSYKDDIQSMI", "assay": "PfOPRT kinetic and inhibition assay (OMP with PA or PPi)", "protocol": "(§1) Expression and Purification of PfOPRT and HsOPRT. The pDEST14 vectors encoding the two OPRT genes were transformed into BL21-AI E. coli competent cells and grown in LB+Amp (100 μg mL^−1) at 37° C. to an OD600 of 0.6. Protein expression was induced by adding 0.02% L-arabinose with overnight growth at 37° C. Cells were harvested by centrifugation at 4° C., weighted and resuspended in lysis buffer (20 mM Tris-HCl, 500 mM NaCl and 5 mM Imidazole, pH=7.9, 3 mL/gram cell pellet). Lysozyme (100 μg mL^−1), DNase I (10 μg mL^−1) and protease inhibitor (1 tablet/8 grams of cells) (Roche Applied Science, Indianapolis, Ind.) were added to the solution. Following disruption in a French Press, cell lysate was centrifuged at 30,000 g for […] at 4° C. […] The 6×His-OPRTs were eluted with a gradient of imidazole (20 mM ˜500 mM). The OPRT bands were visualized on SDS-PAGE gels and fractions with high purity were pooled, made to 10% glycerol and 10 mM β-ME (final concentration), concentrated and dialyzed overnight at 4° C. to remove imidazole. His-tags were removed during dialysis by the presence of thrombin (1 unit/0.1 mg). His-tag free OPRTs were purified by Superdex 200 26/60 Gel filtration column, concentrated and stored at −80° C. […] Reactions were monitored by the absorbance increase at 295 nm to give an extinction coefficient of 3.67 mM^−1 cm^−1."}, "HsOPRT [2]": {"molecular_target": "T2, HsOPRT (Homo sapiens, UniProt P11172)", "T2 construct": "This HsUMPase truncation construct only expresses its HsOPRT domain; His6 (thrombin-cleavable) (N, cleaved yes); made in house; host or cells: E. coli BL21-AI", "T2 sequence (P11172 1-245)": "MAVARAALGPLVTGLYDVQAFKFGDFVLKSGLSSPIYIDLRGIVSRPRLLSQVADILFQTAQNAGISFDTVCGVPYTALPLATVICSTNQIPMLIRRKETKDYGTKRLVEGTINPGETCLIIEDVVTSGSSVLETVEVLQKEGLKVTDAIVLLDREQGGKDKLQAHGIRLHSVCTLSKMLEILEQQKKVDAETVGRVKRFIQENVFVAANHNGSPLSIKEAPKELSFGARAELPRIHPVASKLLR", "assay": "HsOPRT kinetic and inhibition assay (OMP with PA or PPi)", "protocol": "as §1"}, "PfOPRT [3]": {"molecular_target": "T1, PfOPRT", "assay": "PfOPRT catalytic activity with p-nitrophenyl β-D-ribose 5′-phosphate as substrate", "details": "with PA or pyrophosphate; absorbance at 400 nm; conditions could detect 10^−6 of normal activity", "protocol": "(§2) The PfOPRT and HsOPRT catalytic activities with p-nitrophenyl β-D-ribose 5′-phosphate were measured at 25° C. in solutions containing 50 mM Tris-HCl (pH=8.0), 5 mM MgCl2 and varied concentrations of p-nitrophenyl β-D-ribose 5′-phosphate and PA or pyrophosphate. Reaction rates were monitored through the absorbance increase at 400 nm."}, "HsOPRT [4]": {"molecular_target": "T2, HsOPRT", "assay": "HsOPRT catalytic activity with p-nitrophenyl β-D-ribose 5′-phosphate as substrate", "details": "with PA or pyrophosphate; absorbance at 400 nm", "protocol": "as §2"}, "[5]": {"details": "competitive inhibition with respect to OMP, PPi as substrate, 25° C., pH 8.0"}}, "note": "Where two headings read alike, the source gives them in different places."}
{"smiles": "O=C(O)c1cc(=O)[nH]c(=O)n1[C@@H]1O[C@H](COP(=O)(O)O)[C@@H](O)[C@H]1O", "note": "[OMP, orotidine 5′-monophosphate, reference compound]", "values": [{"measurement": "reduction of kcat/Km with PA relative to PPi as the nucleophile", "setting": "PfOPRT [1]; OMP, PA versus PPi", "value": 110, "unit": "fold"}, {"measurement": "reduction of kcat/Km with PA relative to PPi as the nucleophile", "setting": "HsOPRT [2]; OMP, PA versus PPi", "value": 8.3, "unit": "fold"}]}
{"smiles": "O=[N+]([O-])c1ccc(O[C@@H]2O[C@H](COP(=O)(O)O)[C@@H](O)[C@H]2O)cc1", "note": "[p-nitrophenyl β-D-ribose 5′-phosphate]", "values": [{"measurement": "Ki", "setting": "PfOPRT [1]", "value": 40, "unit": "nM"}, {"measurement": "Km/Ki", "setting": "PfOPRT [1]; Km of OMP over Ki of inhibitor", "value": 93}, {"measurement": "Ki", "setting": "HsOPRT [2]", "value": 41, "unit": "nM"}, {"measurement": "Km/Ki", "setting": "HsOPRT [2]; Km of OMP over Ki of inhibitor", "value": 38}, {"measurement": "catalytic activity as substrate (O-glycosidic bond cleavage)", "setting": "PfOPRT [3]", "value": "did not catalyze the O-glycosidic bond cleavage"}, {"measurement": "catalytic activity as substrate (O-glycosidic bond cleavage)", "setting": "HsOPRT [4]", "value": "Poor catalytic activity"}]}
{"smiles": "O=[N+]([O-])c1ccc(O[C@@H]2O[C@H](CO)[C@@H](O)[C@H]2O)cc1", "note": "[p-nitrophenyl β-D-ribose, reference compound]", "values": [{"measurement": "Ki", "setting": "PfOPRT [1]; [5]", "value": 188, "unit": "nM"}, {"measurement": "Ki", "setting": "HsOPRT [2]; [5]", "value": 121, "unit": "nM"}]}
